IC50 data for 29 molecules are collected here from patent publication EP2951180B1, “2,6,7,8 SUBSTITUTED PURINES AS HDM2 INHIBITORS” (Merck Sharp & Dohme Corp., priority 2013, dated 2014).

Molecules are shown by their SMILES.

One experiment deals with T1, HDM2 (Homo sapiens, UniProt Q00987).
T1 construct: Thioredoxin (N); made in house; host or cells: E. coli strain BL21(DE3)Rosetta
T1 sequence (Q00987 17-125): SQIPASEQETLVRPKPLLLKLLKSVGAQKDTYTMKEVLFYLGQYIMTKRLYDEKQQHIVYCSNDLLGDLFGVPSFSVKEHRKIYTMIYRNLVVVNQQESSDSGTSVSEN
In words: FRET assay (HDM2 inhibition; method not described in this part). It counts as binding. The settings on record: Table 1.
The term IC50 denotes the point on the concentration scale where inhibition reaches its midpoint. In turn, `CCC(C)c1ccnc(-c2nc3nc(C(=O)O)nc(N[C@H](C)C4CCC4)c3n2Cc2ccc(C(F)(F)F)cc2)c1` (single isomer, unassigned) [Example 1.14] gave an IC50 of 3.65 nM.
The same measure, in the same setting: with `CCC(C)c1ccnc(-c2nc3nc(C(=O)O)nc(N[C@H](C)C4CCC4)c3n2Cc2ccc(C(F)(F)F)cc2)c1` (single isomer, unassigned) [Example 1.15] the figure was 3.32 nM; with `C[C@@H](Nc1nc(C(=O)O)nc2nc(-c3cc(N(C)C)ccc3OC(F)(F)F)n(Cc3ccc(C(F)(F)F)cc3)c12)C1CCC1` [Example 1.1, (R)-6-((1-cyclobutylethyl)amino)-8-(5-(dimethylamino)-2-(trifluoromethoxy)phenyl)-7-(4-(trifluoromethyl)benzyl)-7H-purine-2-carboxylic acid], 11.4 nM; with `CCc1ccc(Cl)c(-c2nc3nc(C(=O)O)nc(N[C@H](C)C4CCC4)c3n2Cc2ccc(C(F)(F)F)cc2)c1` [Example 1.2, (R)-8-(2-chloro-5-ethylphenyl)-6-((1-cyclobutylethyl)amino)-7-(4-(trifluoromethyl)benzyl)-7H-purine-2-carboxylic acid], 23.7 nM.
Still for that read-out and setting: with `CC(C)c1ccc(OC(F)(F)F)c(-c2nc3nc(C(=O)O)nc(N[C@H](C)C4CCC4)c3n2Cc2ccc(C(F)(F)F)c(F)c2)c1` [Example 1.3, (R)-6-((1-cyclobutylethyl)amino)-7-(3-fluoro-4-(trifluoromethyl)benzyl)-8-(5-isopropyl-2-(trifluoromethoxy)phenyl)-7H-purine-2-carboxylic acid] the figure was 15.2 nM; with `CC(C)c1cc(-c2nc3nc(C(=O)O)nc(N[C@H](C)C4CCC4)c3n2Cc2ccc(C(F)(F)F)cc2)ccn1` [Example 1.4, (R)-6-((1-cyclobutylethyl)amino)-8-(2-isopropylpyridin-4-yl)-7-(4-(trifluoromethyl)benzyl)-7H-purine-2-carboxylic acid], 58.8 nM; with `C=C(C)c1cc(C)nc(-c2nc3nc(C(=O)O)nc(N[C@H](C)C4CCC4)c3n2Cc2ccc(C(F)(F)F)cc2)c1` [Example 1.5, (R)-6-((1-cyclobutylethyl)amino)-8-(6-methyl-4-(prop-1-en-2-yl)pyridin-2-yl)-7-(4-(trifluoromethyl)benzyl)-7H-purine-2-carboxylic acid], 50.2 nM.
The same measure, in the same setting: the value for `CC(C)c1ccnc(-c2nc3nc(C(=O)O)nc(N[C@H](C)C4CCC4)c3n2Cc2ccc(Cl)c(F)c2)c1` [Example 1.6, 7-(4-chloro-3-fluorobenzyl)-6-{[(1R)-1-cyclobutylethyl]amino}-8-[4-(propan-2-yl)pyridin-2-yl]-7H-purine-2-carboxylic acid] was 2.79 nM; that for `CC(C)c1ccnc(-c2nc3nc(C(=O)O)nc(N[C@H](C)C4CCC4)c3n2Cc2ccc(C(F)(F)F)s2)c1` [Example 1.7, 6-{[(1R)-1-cyclobutylethyl]amino}-8-[4-(propan-2-yl)pyridin-2-yl]-7-{[5-(trifluoromethyl)thiophen-2-yl]methyl}-7H-purine-2-carboxylic acid] was 26.9 nM.
`C[C@@H](Nc1nc(C(=O)O)nc2nc(-c3cc(C(O)c4ccccc4)ccn3)n(Cc3ccc(C(F)(F)F)cc3)c12)C1CCC1` (stereo partly drawn) [Example 1.8, 6-(((R)-1-cyclobutylethyl)amino)-8-(4-(hydroxy(phenyl)methyl)pyridin-2-yl)-7-(4-(trifluoromethyl)benzyl)-7H-purine-2-carboxylic acid] had an IC50 of 20.1 nM.
Same read-out and setting: the value for `C[C@@H](Nc1nc(C(=O)O)nc2nc(-c3cc(Cc4ccccc4)ccn3)n(Cc3ccc(C(F)(F)F)cc3)c12)C1CCC1` [Example 1.9, (R)-8-(4-benzylpyridin-2-yl)-6-((1-cyclobutylethyl)amino)-7-(4-(trifluoromethyl)benzyl)-7H-purine-2-carboxylic acid] was 37.4 nM; that for `CC(C)c1cc(-c2nc3nc(C(=O)O)nc(N[C@H](C)C4CCC4)c3n2Cc2ccc(C(F)(F)F)cc2)ncc1F` [Example 1.10, (R)-6-((1-cyclobutylethyl)amino)-8-(5-fluoro-4-isopropylpyridin-2-yl)-7-(4-(trifluoromethyl)benzyl)-7H-purine-2-carboxylic acid] was 3.96 nM; that for `CC(C)c1ccc(O)c(-c2nc3nc(C(=O)O)nc(N[C@H](C)C4CCC4)c3n2Cc2ccc(C(F)(F)F)cc2)c1` [Example 1.11, (R)-6-((1-cyclobutylethyl)amino)-8-(2-hydroxy-5-isopropylphenyl)-7-(4-(trifluoromethyl)benzyl)-7H-purine-2-carboxylic acid] was 50.3 nM.
In turn, `CCOc1ccc(C(C)C)cc1-c1nc2nc(C(=O)O)nc(N[C@H](C)C3CCC3)c2n1Cc1ccc(C(F)(F)F)cc1` [Example 1.12, (R)-6-((1-cyclobutylethyl)amino)-8-(2-ethoxy-5-isopropylphenyl)-7-(4-(trifluoromethyl)benzyl)-7H-purine-2-carboxylic acid] came in with an IC50 of 29.4 nM.
With `CC(C)c1ccnc(-c2nc3nc(C(=O)O)nc(N(C)[C@H](C)C4CCC4)c3n2Cc2ccc(C(F)(F)F)c(F)c2)c1` [Example 1.13, (R)-6-((1-cyclobutylethyl)(methyl)amino)-7-(3-fluoro-4-(trifluoromethyl)benzyl)-8-(4-isopropylpyridin-2-yl)-7H-purine-2-carboxylic acid], the IC50 was 158 nM.
Still for that read-out and setting: the value for `C[C@@H](Nc1nc(C(=O)O)nc2nc(-c3ccccn3)n(Cc3ccc(C(F)(F)F)cc3)c12)C1CCC1` [Example 1.16, 6-{[(1R)-1-cyclobutylethyl]amino}-8-pyridin-2-yl-7-[4-(trifluoromethyl)benzyl]-7H-purine-2-carboxylic acid] was 25.3 nM; that for `Cc1ccnc(-c2nc3nc(C(=O)O)nc(N[C@H](C)C4CCC4)c3n2Cc2ccc(C(F)(F)F)cc2)c1` [Example 1.17, 6-{[(1R)-1-cyclobutylethyl]amino}-8-(4-methylpyridin-2-yl)-7-[4-(trifluoromethyl)benzyl]-7H-purine-2-carboxylic acid] was 12.7 nM.
On the same count and under the same terms, with `Cc1cccnc1-c1nc2nc(C(=O)O)nc(N[C@H](C)C3CCC3)c2n1Cc1ccc(C(F)(F)F)cc1` [Example 1.18] the figure was 45.7 nM; with `Cc1cccc(-c2nc3nc(C(=O)O)nc(N[C@H](C)C4CCC4)c3n2Cc2ccc(C(F)(F)F)cc2)n1` [Example 1.19], 42.5 nM; with `COc1ccc(-c2nc3nc(C(=O)O)nc(N[C@H](C)C4CCC4)c3n2Cc2ccc(C(F)(F)F)cc2)nc1` [Example 1.20, 6-{[(1R)-1-cyclobutylethyl]amino}-8-(5-methoxypyridin-2-yl)-7-[4-(trifluoromethyl)benzyl]-7H-purine-2-carboxylic acid], 24.1 nM.
Same read-out and setting: the value for `Cc1ccc(C)c(-c2nc3nc(C(=O)O)nc(N[C@H](C)C4CCC4)c3n2Cc2ccc(C(F)(F)F)cc2)n1` [Example 1.21, 6-{[(1R)-1-cyclobutylethyl]amino}-8-(3,6-dimethylpyridin-2-yl)-7-[4-(trifluoromethyl)benzyl]-7H-purine-2-carboxylic acid] was 27 nM.
Turning to `CC(C)c1ccnc(-c2nc3nc(C(=O)O)nc(N[C@H](C)C4CCC4)c3n2Cc2ccc(C(F)(F)F)cc2)c1` [Example 1.22], half-maximal inhibition (IC50) was put at 4.22 nM.

The next experiment deals with T1, HDM2. In words: HDM2 FRET assay (inhibition of binding of FITC labeled p53-pocket peptide to HDM2). The settings on record: 0.5 nM HDM2 (residues 17 to 125), 3nM peptide, two hour incubation at room temperature; read-out: FRET IC50. Summed up: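 Displacement of FITC-p53 peptide (3 nM) from His-tagged HDM2 (0.5 nM) is measured by Tb-to-fluorescein FRET in PBS, 0.01% BSA, 0.01% Tween-20. IC50 values derive from 10-point curves.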
For the molecule `C[C@H]1CC[C@H](Cn2c(C3CC3)nc3nc(-c4n[nH]c(=O)o4)nc(-c4cccc(Cl)c4)c32)CC1` [Example 24.1, 5-{6-(3-chlorophenyl)-8-cyclopropyl-7-[(trans-4-methylcyclohexyl)methyl]-7H-purin-2-yl}-1,3,4-oxadiazol-2(3H)-one], the IC50 was 62.8 nM.
The same measure, in the same setting: with `C[C@H]1CC[C@H](Cn2c(C3CC3)nc3nc(-c4noc(=O)[nH]4)nc(-c4cccc(Cl)c4)c32)CC1` [Example 24.2, 3-{6-(3-chlorophenyl)-8-cyclopropyl-7-[(trans-4-methylcyclohexyl)methyl]-7H-purin-2-yl}-1,2,4-oxadiazol-5(4H)-one] the figure was 41.7 nM.

Still in this experiment, the particulars now being: Table 25; read-out: FRET IC50.
Regarding `C[C@H]1CC[C@H](Cn2c(N3CCOC[C@H]3c3ccccc3)nc3nc(-c4noc(=O)[nH]4)nc(-n4cc(Cl)ccc4=O)c32)CC1` [Example 25.1, 5-chloro-1-{7-[(trans-4-methylcyclohexyl)methyl]-2-(5-oxo-4,5-dihydro-1,2,4-oxadiazol-3-yl)-8-[(3R)-3-phenylmorpholin-4-yl]-7H-purin-6-yl}pyridin-2(1H)-one], the IC50 came to 1.01 nM.
For `C[C@H]1CC[C@H](Cn2c(N3CCOC[C@H]3c3ccccc3)nc3nc(-c4noc(=O)[nH]4)nc(Oc4ccc(Cl)cn4)c32)CC1` [Example 25.2, 3-{6-[(5-chloropyridin-2-yl)oxy]-7-[(trans-4-methylcyclohexyl)methyl]-8-[(3R)-3-phenylmorpholin-4-yl]-7H-purin-2-yl}-1,2,4-oxadiazol-5(4H)-one], the IC50 was determined as 15.4 nM.
On the same count and under the same terms, with `C[C@H]1CC[C@H](Cn2c(N3CCOC[C@H]3c3ccccc3)nc3nc(-c4n[nH]c(=O)o4)nc(Oc4ccc(Cl)cn4)c32)CC1` [Example 25.3, 5-{6-[(5-chloropyridin-2-yl)oxy]-7-[(trans-4-methylcyclohexyl)methyl]-8-[(3R)-3-phenylmorpholin-4-yl]-7H-purin-2-yl}-1,3,4-oxadiazol-2(3H)-one] the figure was 20.1 nM.

Still in this experiment, the particulars now being: Table 26; read-out: FRET IC50.
On to `C[C@@H]1COCCN1c1nc2nc(CC(=O)O)nc(-c3cccc(Cl)c3)c2n1C[C@H]1CC[C@H](C)CC1` [Example 26.2, {6-(3-chlorophenyl)-7-[(trans-4-methylcyclohexyl)methyl]-8-[(3R)-3-methylmorpholin-4-yl]-7H-purin-2-yl} acetic acid], for which the IC50 stood at 783 nM.
Same read-out and setting: the value for `CC1CN(c2nc(-c3noc(=O)[nH]3)nc3nc(N4CCOC[C@H]4c4ccccc4)n(C[C@H]4CC[C@H](C)CC4)c23)CCO1` (stereo partly drawn) [Example 26.3, 3-{7-[(trans-4-methylcyclohexyl)methyl]-6-(2-methylmorpholin-4-yl)-8-[(3R)-3-phenylmorpholin-4-yl]-7H-purin-2-yl}-1,2,4-oxadiazol-5(4H)-one] was 14.5 nM.
